Assay results from US20210221862A1, “APPLICATION OF PEDF-DERIVED SHORT PEPTIDES IN THE TREATMENT OF OSTEOARTHRITIS” (BRIM Biotechnology, Inc., priority 2018, published 2021).

Experiments:
[1] = tested on: rat model of MIA-induced OA; assay: MIA-induced hind paw weight-bearing shift (incapacitance tester), rat OA model; format: in vivo; conditions: for MIA-induced weight shift (hind paw weight-bearing): vehicle/HA 75.9±4.7%
Experimental: (§1) Adult 10-wk-old male Sprague-Dawley rats (initial body wt=312±11 g) were anesthetized by an intraperitoneal injection of Xylazine (10 mg/kg). After that, their right knees were each treated with a single intraarticular injection of 1 mg of MIA in 25 μl of sterile saline. The solution was injected through the patellar ligament using a 27 G needle with the leg flexed at a 90° angle at the knee. Seven days after MIA injection, the […] were randomly assigned to different experimental groups (n 3, each group). For treatments of the rat model of MIA-induced OA, PDSP peptide was dissolved in 25 μl of 1% HA, and the peptide solvent DMSO was used as a vehicle/HA control.
Changes in hind paw weight distributions between the right (osteoarthritic) and left (contralateral control) limbs were used as an index of joint discomfort in the osteoarthritic knee. An incapacitance tester was employed for determination of hind paw weight distributions, as previously described (Bove et al., Weight bearing as a measure of disease progression and efficacy of anti-inflammatory compounds in a model of monosodium iodoacetate-induced osteoarthritis. Osteoarth Cart., 2003; 11:821-830). Rats were placed in an angled plexiglass chamber positioned so that each hind paw rested on a separate force plate. The force exerted by each hind limb (measured in grams) is averaged over a 5-s period. Each data point is the mean of three, 5-s readings. The change in hind paw weight distribution was calculated by determining the difference in the amounts of weights (g) exerted on the tester between the left and right limbs. Results are presented as either the difference in weight bearing between the left (contralateral control) limb and right (osteoarthritic) limbs or as the percent difference between the baseline reading and the post-treatment reading, as calculated using the following equation:
(1−(mean Δweight of treated group/mean Δ weight of vehicle group))×(100)
To investigate whether PDSP (PEDF short peptide) has antinociceptive effects to ameliorate the joint discomfort, 10-wk-old male Sprague-Dawley rats (n=15) were subjected to intraarticular injection of 1 mg of MIA (dissolved in 25 μl of sterile saline) into right joint to induce a maximum degree of weight shift (from right to left leg) and then used to investigate the pharmacologic response of the 29-mer PDSP (SEQ ID NO:1). […]
In the animal study, the 29-mer PDSP variants were formulated into 1% HA to final a concentration of 0.2 mM and then applied by way of a single intraarticular injection each on day 1 and day 8 post-MIA injection. After 29-mer variant treatments for 14 days, the antinociceptive effects of the 29-mer variants (n=3 per group) on MIA-induced hind paw weight-bearing shifts were evaluated with an incapacitance tester.

rat MSCs = assay: Chondrogenic differentiation of MSCs, GAG by Alcian blue staining; format: cell-based; conditions: 10 μM peptide in medium with dexamethasone and TGF-β3, 21 days; DMSO control 0.15±0.024
Experimental: Adult 8-wk-old male Sprague-Dawley rats were anesthetized with an intraperitoneal injection of Xylazine (10 mg/kg). After that, their femurs were aseptically harvested, washed in a mixture of PBS and antibiotics for 5 minutes, and then they were dissected off of all soft tissue, transected at their epiphysis, and their marrow cavity rinsed repeatedly with a mixture of heparin (AGGLUTEX INJ 5000 U/ML 5 ML; working conc. 100 U/ml) and DMEM. The harvested cells were collected, dispersed by pipetting, and centrifuged at 1000×g for 5 minutes at RT. Cell pellets were resuspended with DMEM, and then the cell suspension was transferred to a 15-ml centrifuge tube containing 5 ml of Percoll (1.073 g/ml). […]
For Alcian blue staining, cultures were rinsed twice with PBS, fixed in 4% (w/v) paraformaldehyde for 15 min, and then incubated in 1% (w/v) Alcian blue 8-GX (Sigma) in 0.1 N HCl (pH 1.0) overnight as previously described (Ji Y. H. et al., Quantitative proteomics analysis of chondrogenic differentiation of C3H10T1/2 mesenchymal stem cells by iTRAQ labeling coupled with on-line two-dimensional LC/MS/MS, Mol. Cell. Proteom., 2010, 9(3): 550-564.). For semi-quantitative analysis, Alcian blue-stained cultures were extracted with 6 M guanidine HCl for 2 h at room temperature. The absorption of the extracted dye was measured at 650 nm in a microplate reader (Bio-Rad). […]

[2] = tested on: chondrogenic cells in damaged articular cartilage; assay: In vivo DNA synthesis: BrdU / Sox9 staining of damaged articular cartilage, MIA-induced OA; parameters: species or system rat
Experimental: as §1
For detection of cell proliferation, BrdU was reconstituted in DMSO as stock (80 mM). […] DNA synthesis was assessed by BrdU labeling, as detected with anti-BrdU antibodies.
To detect DNA synthesis in vivo, paraffin-embedded joint specimens were deparaffinized in xylene and rehydrated in a graded series of ethanol and then exposed to 1 N HCl at RT for 1 h for subsequent immunohistochemistry. […] Images were captured using a Zeiss epifluorescence microscope with a CCD camera and measured from 20 randomly-selected areas in each sample, and blind quantification was performed in triplicate by manually counting within each section. […]

[3] = tested on: MIA-damaged articular cartilage; assay: Histological examination (H&E) of MIA-damaged articular cartilage; format: in vivo, rat; conditions: 29-mer/HA from day 8 post-MIA for 2 weeks
Experimental: as §1
The knee joints were dissected, and the surrounding soft tissue was removed. Specimens were fixed in a 4% paraformaldehyde (PFA) solution and then were decalcified with Shandon TBD-2 decalcifier (Thermo Scientific, Logan, Utah). The joints were then sectioned mid-sagittally and embedded in paraffin blocks. Sections (5 μm in thickness) were longitudinally cut and stained with hematoxylin and eosin (H&E) or used for immunohistochemical examination. 20 sections per knee were carefully prepared so as to include the most severely degenerated area.
It has been established that rat knee joints injected with MIA can result in extensive chondrocyte degeneration/necrosis at day 7 post-MIA treatment in a rapid and reproducible manner. […]

For “SLGAEQRTESIIHRALYYDLISSPDIHGT (in 1% hyaluronic acid; listed as Homo sapiens) [29-mer, PEDF-derived short peptide, human PEDF residues 93-121]”, the “MIA-induced weight shift (hind paw weight-bearing)” value (from here on “MIA-induced weight shift”) ([1]; group II: 0.2 mM 29-mer in 1% HA, intraarticular on day 1, 4, 8, 12 (twice per week), 14 days) was 63.3±12.5%, the “MIA-induced weight shift” value ([1]; group III: 29-mer alone (bolus, without HA), intraarticular day 1, 4, 8, 12) was 77.2±1.2% and the “MIA-induced weight shift” value ([1]; group IV: 29-mer/HA, intraarticular once on day 1 and day 8 (once per week), 14 days) was 58.1±4.6%. The “MIA-induced hind paw weight-bearing shift” value ([1]; variant study (FIG. 4): 0.2 mM peptide in 1% HA, intraarticular day 1 and day 8, after 14 days, vehicle/HA 47.1±3.7%) was 22.0±0.66%, the “Alcian blue-positive material (GAG) at OD 650 nm” value (rat MSCs) was 0.34±0.013 and the “Sox9 immunostaining of BrdU-positive cells” value ([2]; 0.2 mM 29-mer/HA, dual immunostaining, FIG. 5A) was “BrdU-positive cells were also Sox9 positive”. For the same sequence, the “BrdU-positive cells per field of cartilage region” value ([2]; 0.2 mM peptide in 1% HA, 14 days treatment, vehicle/HA 7±3) was 346±57, the “Chondrocytes in cartilage, H&E histology” value ([3]; vehicle/HA: chondrocytes lost from superficial zone) was “large numbers of newly generated chondrocytes throughout the cartilage” and the “Cartilage integrity, H&E histology” value ([3]; vehicle/HA: loss of cartilage integrity) was “good surface continuity”.
